A word on the solubility: it is the dissolved amount per volume that the medium holds. Low values mean a poorly soluble substance, high ones a readily soluble substance.

SMILES strings stand for the structures. Values after ≈ are worked out from the molar mass of the structure shown.

These results are taken from patent US20250049674A1, “COSMETIC OR DERMATOLOGICAL COMPOSITION COMPRISING AT LEAST A MEROCYANINE AND A HYDROTROPE” (L'OREAL, priority 2021, published 2025).

This series can be described thus: Water solubility of merocyanine (C). As to conditions: at 20° C. It counts as physicochemical. An excerpt: It is therefore necessary to be able to formulate UV-screening agents of merocyanine type in an aqueous medium. In particular, for cosmetic quality and performance benefits, it is advantageous that this aqueous medium be a single-phase medium.

In turn, `CCOCCOC(=O)/C(C#N)=C1\C=C(NCCCOC)CCC1` [Compound (C), 2-ethoxyethyl (2Z)-cyano{3-[(3-methoxypropyl)amino]cyclohex-2-en-1-ylidene}ethanoate] registered a solubility of roughly 500 µg/mL (≈ 1550 µM).
